Experimental findings from patent publication US6410564B1, “Naphthyl compounds, intermediates, processes, compositions, and methods” (Eli Lilly and Company, priority 1994, dated 2002) are described below.

Where two headings read alike, the source gives them in different places.

Series [1] relates to ovariectomized (OVX) female Sprague Dawley rats. Nature of the series: Serum cholesterol in OVX rats, 4-day dosing. The class given is in vivo, rat. As to conditions: Rattus norvegicus, po, 96 h, oral daily for 4 days, read-out: Serum Cholesterol (% decrease vs. OVX). From the text:
(§1) Seventy-five day old female Sprague Dawley rats (weight range of 200 to 225 g) were obtained from Charles River Laboratories (Portage, Mich.). The animals were either bilaterally ovariectomized (OVX) or exposed to a Sham surgical procedure at Charles River Laboratories, and then shipped after one week. Upon arrival, they were housed in metal hanging cages in groups of 3 or 4 per cage and had ad libitum access to food (calcium content approximately 0.5%) and water for one week. Room temperature was maintained at 22.2°±1.7° C. with a minimum relative humidity of 40%. The photoperiod in the room was 12 hours light and 12 hours dark.
(§2) Dosing Regimen Tissue Collection. After a one week acclimation period (therefore, two weeks post-OVX) daily dosing with test compound was initiated. 17α-ethynyl estradiol or the test compound were given orally, unless otherwise stated, as a suspension in 1% carboxymethylcellulose or dissolved in 20% cyclodextrin. Animals were dosed daily for 4 days. Following the dosing regimen, animals were weighed and anesthetized with a ketamine: Xylazie (2:1, V:V) mixture and a blood sample was collected by cardiac puncture. The animals were then sacrificed by asphyxiation with CO2, the uterus was removed through a midline incision, and a wet uterine weight was determined.
Cholesterol Analysis. Blood samples were allowed to clot at room temperature for 2 hours, and serum was obtained following centrifugation for 10 minutes at 3000 rpm. Serum cholesterol was determined using a Boehringer Mannheim Diagnostics high performance cholesterol assay. Briefly the cholesterol was oxidized to cholest-4-en-3-one and hydrogen peroxide. The hydrogen peroxide was then reacted with phenol and 4-aminophenazone in the pressure of peroxidase to produce a p-quinone imine dye, which was read spectrophotemetrically at 500 nm. Cholesterol concentration was then calculated against a standard curve. The entire assay was automated using a Biomek Automated Workstation.
(§3) Data presented in Table 1 below show comparative results among ovariectomized rats, rats treated with 17α-ethynyl estradiol (EE2; an orally available form of estrogen), and rats treated with certain compounds of the present invention. […] This uterine response to estrogen is well recognized in the art.
(§4) The data presented in the Tables 1 below reflects the response of 5 to 6 rats per treatment.

The test system of series [2] is Uterine Eosinophil Peroxidase (EPO). As to conditions: female, Sprague Dawley, rat, in vivo, po, 4 days.
Source text: as §1, §2
Uterine Eosinophil Peroxidase (EPO) Assay. Uteri were kept at 4° C. until time of enzymatic analysis. The uteri were then homogenized in 50 volumes of 50 mM Tris Buffer (pH −8.0) containing 0.005% Triton X-100. Upon addition of 0.01% hydrogen peroxide and 10 mM O-phenylenediamine (final concentrations) in Tris buffer, increase in absorbance was monitored for one minute at 450 nm. The presence of eosonophils in the uterus is an indication of estrogenic activity of a compound. The maximal velocity of a 15 second interval was determined over the initial, linear portion of the reaction curve.
As is expressed in the below data, estrogenicity also was assessed by evaluating the adverse response to eosinophil infiltration into the uterus.
as §4

Series [3] deals with ovariectomized (OVX) female Sprague Dawley rats. Particulars: rat, in vivo, po, 4 days. The method, then:
In the examples illustrating the methods, a post-menopausal model was used in which effects of different treatments upon circulating lipids were determined.
as §1, §2, §3, §4

For `CC(C)(C)C(=O)Oc1ccc(-c2ccc3cc(OC(=O)C(C)(C)C)ccc3c2Cc2ccc(OCCN3CCCCC3)cc2)cc1` [Example 4, [2-(4-Pivaloyloxyphenyl)-6-pivaloyloxynaphthalen-1-yl][4-[2-(1-piperidinyl)ethoxy]phenyl]methane], the inhibition in vivo at 0.1 mg/kg in series [1] stood at 21.2%. In addition, the inhibition in vivo at 1 mg/kg in series [1] came to 37.2%. Moreover, in series [1], the inhibition in vivo at 10 mg/kg was 20.8%. For the same compound, the “Uterine EPO (V. max)” value is recorded as 3.6 in series [2] (0.1 mg/kg), 2.9 in series [2] (1 mg/kg) and 3.4 in series [2] (10 mg/kg). Besides, the “Uterine Weight (% increase vs. OVX)” value in series [3] (0.1 mg/kg) was found to be 52.1%; in series [3] (1 mg/kg), 22.8%; in series [3] (10 mg/kg) it was 75.2%.

As for `CCCCS(=O)(=O)Oc1ccc(-c2ccc3cc(OS(=O)(=O)CCCC)ccc3c2Cc2ccc(OCCN3CCCCC3)cc2)cc1` [Example 5, [2-(4-n-Butylsulfonyloxyphenyl)-6-n-butylsulfonyloxynaphthalen-1-yl][4-[2-(1-piperidinyl)ethoxy]phenyl]methane], the inhibition in vivo at 0.1 mg/kg in series [1] is 6%. Further, the inhibition in vivo at 1 mg/kg in series [1] amounted to 62%. The inhibition in vivo at 10 mg/kg in series [1] worked out at 46.2%. Further, the “Uterine EPO (V. max)” value in series [2] (0.1 mg/kg) is 3.4; in series [2] (1 mg/kg) it was 4.3; in series [2] (10 mg/kg), 2.6. Moreover, the “Uterine Weight (% increase vs. OVX)” value is 43.2% in series [3] (0.1 mg/kg), 16.0% in series [3] (1 mg/kg) and 25.3% in series [3] (10 mg/kg).

`Oc1ccc2c(Cc3ccc(OCCN4CCCCC4)cc3)c(-c3ccccc3)ccc2c1` [Example 11, [2-Phenyl-6-hydroxynaphthalen-1-yl][4-[2-(1-piperdinyl)ethoxy]phenyl]methane]: the inhibition in vivo at 0.1 mg/kg in series [1] worked out at 60.2%. Moreover, the inhibition in vivo at 1 mg/kg in series [1] is 73.5%. For the same compound, the inhibition in vivo at 10 mg/kg in series [1] came out at 72.4%. Besides, the “Uterine EPO (V. max)” value in series [2] (0.1 mg/kg) came out at 4.8; in series [2] (1 mg/kg), 3.9; in series [2] (10 mg/kg), 3.9. The results for the “Uterine Weight (% increase vs. OVX)” value in series [3] (0.1 mg/kg), in series [3] (1 mg/kg) and in series [3] (10 mg/kg) were 48.1%, 47.4% and 14.4%, respectively.

Consider `Oc1ccc2c(Cc3ccc(OCCN4CCCC4)cc3)c(-c3ccccc3)ccc2c1` [Example 12], for which, in series [1], the inhibition in vivo at 0.1 mg/kg worked out at 46.3%. For the same compound, in series [1], the inhibition in vivo at 1 mg/kg was 49.9%. Moreover, the inhibition in vivo at 10 mg/kg in series [1] amounted to 50.1%. The entries for the “Uterine EPO (V. max)” value in series [2] (0.1 mg/kg), in series [2] (1 mg/kg) and in series [2] (10 mg/kg) were 12.0, 4.8 and 4.5, respectively. Moreover, the “Uterine Weight (% increase vs. OVX)” value in series [3] (0.1 mg/kg) worked out at 26.3%; in series [3] (1 mg/kg), 18.6%; in series [3] (10 mg/kg), 25.1%.

On to `COc1ccc(-c2ccc3ccccc3c2Cc2ccc(OCCN3CCCCC3)cc2)cc1.Cl` [Example 15, [2-(4-Methoxyphenyl)-naphthalen-1-yl][4-[2-(1-piperdinyl)ethoxy]phenyl]methane hydrochloride], for which the inhibition in vivo at 0.01 mg/kg in series [1] (dose 0.01 mg/kg) was determined as 12.4%. Also, the inhibition in vivo at 0.1 mg/kg in series [1] came to 53.4%. In addition, in series [1], the inhibition in vivo at 1 mg/kg is 66%. In addition, the inhibition in vivo at 10 mg/kg in series [1] was 55.4%. The “Uterine EPO (V. max)” value is on record as 4.6 in series [2] (0.01 mg/kg), 7.0 in series [2] (0.1 mg/kg), 5.2 in series [2] (1 mg/kg) and 5.5 in series [2] (10 mg/kg). For the same compound, the “Uterine Weight (% increase vs. OVX)” value in series [3] (0.01 mg/kg) was 29.3%; in series [3] (0.1 mg/kg), 41.6%; in series [3] (1 mg/kg) it was 21.2%; in series [3] (10 mg/kg), 53.7%.

Regarding `Oc1ccc(-c2ccc3cc(O)ccc3c2Cc2ccc(OCCN3CCCC3)cc2)cc1` [Example 19], in series [1], the inhibition in vivo at 0.1 mg/kg was 4.5%. Besides, the inhibition in vivo at 1 mg/kg in series [1] was 19.7%. Besides, the inhibition in vivo at 10 mg/kg in series [1] was 40.9%. For the same compound, the “Uterine EPO (V. max)” value in series [2] (0.1 mg/kg) came to 0.9; in series [2] (1 mg/kg), 5.4; in series [2] (10 mg/kg), 4.5. Besides, the figures for the “Uterine Weight (% increase vs. OVX)” value in series [3] (0.1 mg/kg), in series [3] (1 mg/kg) and in series [3] (10 mg/kg) were −12.4%, 1.0% and 7.1%, respectively.

As to `CCN(CC)CCOc1ccc(Cc2c(-c3ccc(OC)cc3)ccc3cc(OC)ccc23)cc1.Cl` [Example 22, [2-(4-Methoxyphenyl)-6-methoxynaphthalen-1-yl][4-[2-(1-N,N-diethylamino)ethoxy]phenyl]methane hydrochloride], the inhibition in vivo at 0.1 mg/kg in series [1] stood at 72%. Moreover, the inhibition in vivo at 1 mg/kg in series [1] was determined as 60.5%. The inhibition in vivo at 10 mg/kg in series [1] is 68.7%. Moreover, the results for the “Uterine EPO (V. max)” value in series [2] (0.1 mg/kg), in series [2] (1 mg/kg) and in series [2] (10 mg/kg) were 45.0, 41.1 and 46.2, respectively. Also, the “Uterine Weight (% increase vs. OVX)” value in series [3] (0.1 mg/kg) is recorded as 83.9%; in series [3] (1 mg/kg), 87.5%; in series [3] (10 mg/kg), 89.3%.

For `COc1ccc(-c2ccc3cc(OC)ccc3c2Cc2ccc(OCCN3CCCCCC3)cc2)cc1.Cl` [Example 26, [2-(4-Methoxyphenyl)-6-methoxynaphthalen-1-yl][4-[2-(1-hexamethyleneiminyl)ethoxy]phenyl]methane hydrochloride], in series [1], the inhibition in vivo at 0.1 mg/kg was 45.1%, the inhibition in vivo at 1 mg/kg amounted to 55.5% and the inhibition in vivo at 10 mg/kg came out at 60.6%.

Turning to `Oc1ccc(-c2ccc3cc(O)ccc3c2Cc2ccc(OCCN3CCOCC3)cc2)cc1` [Example 32], the inhibition in vivo at 0.1 mg/kg in series [1] was 57.9%. Further, the inhibition in vivo at 1 mg/kg in series [1] worked out at 60.3%. Further, in series [1], the inhibition in vivo at 10 mg/kg was 65.7%. Besides, the “Uterine EPO (V. max)” value in series [2] (0.1 mg/kg) amounted to 9.3; in series [2] (1 mg/kg), 39.3; in series [2] (10 mg/kg) it was 34.8. Further, the “Uterine Weight (% increase vs. OVX)” value in series [3] (0.1 mg/kg) turned out to be 50.5%; in series [3] (1 mg/kg), 55.4%; in series [3] (10 mg/kg), 69.7%.

Turning to `CC1(C)CCN(CCOc2ccc(Cc3c(-c4ccc(O)cc4)ccc4cc(O)ccc34)cc2)C1` [Example 33, [2-(4-Hydroxyphenyl)-6-hydroxynaphthalen-1-yl][4-[2-(1-(3,3-dimethyl)pyrrolidinyl)ethoxy]phenyl]methane], in series [1], the inhibition in vivo at 0.1 mg/kg came to 25.2%. For the same compound, in series [1], the inhibition in vivo at 1 mg/kg worked out at 41.1%. Besides, in series [1], the inhibition in vivo at 10 mg/kg was 52.8%. Besides, the “Uterine EPO (V. max)” value turned out to be 12.9 in series [2] (0.1 mg/kg), 55.2 in series [2] (1 mg/kg) and 73.5 in series [2] (10 mg/kg). In addition, the “Uterine Weight (% increase vs. OVX)” value in series [3] (0.1 mg/kg) is listed as 40.8%; in series [3] (1 mg/kg) it was 79.0%; in series [3] (10 mg/kg), 63.0%.
